What was measured:
CAL51 cells [1] = experiment: Cell proliferation (Cell Titer Glow), CAL51; type: cell-based; settings: Homo sapiens, CAL-51; IG compounds, cell killing, 72 h
Description: Exemplary isoindolinone-glutarimide (IG) compounds of Table 1a, 1b and 1c were prepared and characterized according to the Examples herein. Certain exemplary IG compounds of(Table 1a were tested for their effects in inhibiting cellular proliferation, including CAL1 WSU-DLCL2, NCI-N87 and SKBR3. CAL51 is a human breast adenocarcinoma cell line with triple-negative status for expression of estrogen, progesterone and HER2 receptors. WSU-DLCL2 is a human B-Cell non-Hodgkin lymphoma cell line that expresses high levels of CD22. NCI-N87 is a human epithelial cell line established from a gastric carcinoma; SKBR3 is a human epithelial cell line established from a breast adenocarcinoma; both NCI-N87 and SKBR3 cell lines express high levels of HER2 receptor. […]
One day prior to treatment with compounds or IGAC, cells were plated in white 96-well plates (SKBR: 3000 cells/well; CAL-51: 4000 cells/well). Compounds or ADCs were added in a serial-dilution manner reaching the indicated concentrations. Plates were incubated at 37 degrees for 96h (ADCs) or 72h (compounds) whereafter a 1:10 dilution of Cell Titer Glow was used to measure relative cell numbers after 10 min of incubation at room temperature.

CAL51 cells [2] = experiment: Degradation assay evaluated by immunofluorescence staining, CAL51; type: cell-based, human; settings: for Dmax / DC50: Homo sapiens, CAL-51, CAL51, 6 h
Description: One day prior to treatment with compounds, black 96 well plates were coated with fibronectin (0.2 μg/ml in PBS) for 45 min at room temperature and subsequently washed with PBS. CAL-51 or SKBR3 cells were seeded at 30K cells/well (1001) and incubated overnight at 37° C. whereafter compounds were added reaching indicated concentrations. 6 h after treatment the medium was removed, cells were washed with PBS and fixed with 10% formalin for 20 mins at room temperature. Following two PBS washes (150 μl), cells were permeabilized in 0.1% Triton X-100 in PBS for 8 mins at room temperature and subsequently washed again twice with PBS. Cells were blocked thereafter with 1% BSA in PBS for 45 mins. Primary antibody was diluted in blocking buffer and incubated with the cells overnight at 4° C. After three washes with PBS, cells were incubated with secondary antibody for 1 h at RT, washed and subsequently images were taken on an Operetta High-Content Imager.
For the determination of the DC50, a custom algorithm implemented in the PerkinElmer image analysis software Harmony-Acapella® was used.

| SMILES | IC50 (CAL51 cells [1]) | Dmax (CAL51 cells [2]) | DC50 (CAL51 cells [2]) | Dmax (%) CAL51 (CAL51 cells [2]; CAL51, 6 h) |
| --- | --- | --- | --- | --- |
| CNCCOCCc1ccc(NC(=O)OCc2ccc3c(c2)CN(C2CCC(=O)NC2=O)C3=O)cc1Cl (stereo not drawn) [IG-4] | > 10 µM | 17.3 ± 0.107% |  |  |
| CNCCOCCc1ccc(NC(=O)NCc2ccc3c(c2)CN(C2CCC(=O)NC2=O)C3=O)cc1C(C)C (stereo not drawn) [IG-5] | 6.86 µM | 64.6 ± 2.56% | 1410 nM |  |
| CNCCOCCc1ccc(NC(=O)NCc2ccc3c(c2)CN(C2CCC(=O)NC2=O)C3=O)cc1SC (stereo not drawn) [IG-6, 1-((2-(2,6-dioxopiperidin-3-yl)-1-oxoisoindolin-5-yl)methyl)-3-(4-(2-(2-(methylamino)ethoxy)ethyl)-3-(methylthio)phenyl)urea] | 7.51 µM | 73.3 ± 9.98% | 834 ± 125 nM |  |
| O=C1CCC(N2C(=O)c3ccc(NS(=O)(=O)c4ccccc4OC(F)(F)F)cc3C2=O)C(=O)N1 (stereo not drawn) [IG-9, N-(2-(2,6-dioxopiperidin-3-yl)-1,3-dioxoisoindolin-5-yl)-2-(trifluoromethoxy)benzenesulfonamide] | 6.49 µM | 83.8 ± 5.5% | 157 ± 46.5 nM |  |
| Cc1ccc(NC(=O)CCc2ccc3c(c2)CN(C2CCC(=O)NC2=O)C3=O)cc1O (stereo not drawn) [IG-10, 3-(2-(2,6-dioxopiperidin-3-yl)-1-oxoisoindolin-5-yl)-N-(3-hydroxy-4-methylphenyl)propanamide] | > 10 µM | 25.1 ± 3.27% |  |  |
| O=C1CCC(N2Cc3cc(NS(=O)(=O)c4ccccc4OC(F)(F)F)ccc3C2=O)C(=O)N1 (stereo not drawn) [IG-11, N-(2-(2,6-dioxopiperidin-3-yl)-1-oxoisoindolin-5-yl)-2-(trifluoromethoxy) benzenesulfonamide] | > 10 µM | 42 ± 9.54% |  |  |
| Cc1ccc(NC(=O)OCc2ccc3c(c2)CN(C2CCC(=O)NC2=O)C3=O)cc1O (stereo not drawn) [IG-13, (2-(2,6-dioxopiperidin-3-yl)-1-oxoisoindolin-5-yl)methyl (3-hydroxy-4-methylphenyl)carbamate] | 3.04 µM | 38.8 ± 1.98% |  |  |
| CNCCOCCc1ccc(NC(=O)NCc2ccc3c(c2)CN(C2CCC(=O)NC2=O)C3=O)cc1O (stereo not drawn) [IG-14, 1-((2-(2,6-dioxopiperidin-3-yl)-1-oxoisoindolin-5-yl)methyl)-3-(3-hydroxy-4-(2-(2-(methylamino)ethoxy)ethyl)phenyl)urea] | > 10 µM | 22.7 ± 3.34% |  |  |
| Cc1ccc(NC(=O)NCc2ccc3c(c2)C(=O)N(C2CCC(=O)NC2=O)C3)cc1Cl (stereo not drawn) [IG-16, 1-(3-chloro-4-methylphenyl)-3-((2-(2,6-dioxopiperidin-3-yl)-3-oxoisoindolin-5-yl)methyl)urea] | 0.444 µM | 91.7 ± 5.22% | 174 ± 106 nM |  |
| O=C1CCC(N2Cc3c(Nc4ccnc(Cc5ccc6c(c5)CCC6)n4)cccc3C2=O)C(=O)N1 (stereo not drawn) [IG-19, 3-(4-((2-((2,3-dihydro-1H-inden-5-yl)methyl)pyrimidin-4-yl)amino)-1-oxoisoindolin-2-yl)piperidine-2,6-dione] | > 10 µM |  |  | Not active |
| Cc1ccc(NC(=O)NCc2cc(O)c3c(c2)CN(C2CCC(=O)NC2=O)C3=O)cc1Cl (stereo not drawn) [IG-24, 1-(3-chloro-4-methylphenyl)-3-((2-(2,6-dioxopiperidin-3-yl)-7-hydroxy-1-oxoisoindolin-5-yl)methyl)urea] | 0.412 µM |  |  |  |
| Cc1ccc(NC(=O)NCc2ccc3c(c2O)CN(C2CCC(=O)NC2=O)C3=O)cc1O (stereo not drawn) [IG-27, 1-((2-(2,6-dioxopiperidin-3-yl)-4-hydroxy-1-oxoisoindolin-5-yl)methyl)-3-(3-hydroxy-4-methylphenyl)urea] | > 10 µM |  |  |  |
| Nc1ccc2c(c1OS(=O)(=O)c1ccccc1OC(F)(F)F)C(=O)N(C1CCC(=O)NC1=O)C2=O (stereo not drawn) [IG-29, 5-amino-2-(2,6-dioxopiperidin-3-yl)-1,3-dioxoisoindolin-4-yl 2-(trifluoromethoxy)benzenesulfonate] | > 10 µM |  |  |  |
| Nc1ccc(OS(=O)(=O)c2ccccc2OC(F)(F)F)c2c1C(=O)N(C1CCC(=O)NC1=O)C2=O (stereo not drawn) [IG-30, 7-amino-2-(2,6-dioxopiperidin-3-yl)-1,3-dioxoisoindolin-4-yl 2-(trifluoromethoxy)benzenesulfonate] | > 10 µM |  |  |  |
| O=C1CCC(N2Cc3cc(CNC(=O)Nc4ccc(CCOCCN5CCOCC5)c(O)c4)ccc3C2=O)C(=O)N1 (stereo not drawn) [IG-32, 1-((2-(2,6-dioxopiperidin-3-yl)-1-oxoisoindolin-5-yl)methyl)-3-(3-hydroxy-4-(2-(2-morpholinoethoxy)ethyl)phenyl)urea] | > 10 µM |  |  |  |
| Cc1ccc(NC(=O)OCc2ccc3c(c2O)CN(C2CCC(=O)NC2=O)C3=O)cc1Cl (stereo not drawn) [IG-33, (2-(2,6-dioxopiperidin-3-yl)-4-hydroxy-1-oxoisoindolin-5-yl)methyl (3-chloro-4-methylphenyl)carbamate] | > 10 µM |  |  |  |
| O=C1CCC(N2C(=O)c3cc(NS(=O)(=O)c4ccccc4OC(F)(F)F)cc(O)c3C2=O)C(=O)N1 (stereo not drawn) [IG-34, N-(2-(2,6-dioxopiperidin-3-yl)-7-hydroxy-1,3-dioxoisoindolin-5-yl)-2-(trifluoromethoxy)benzenesulfonamide] | > 10 µM |  |  |  |
| Cc1ccc(NC(=O)NCc2ccc3nnn(C4CCC(=O)NC4=O)c(=O)c3c2)cc1O (stereo not drawn) [IG-35, 1-((3-(2,6-dioxopiperidin-3-yl)-4-oxo-3,4-dihydrobenzo[d][1,2,3]triazin-6-yl)methyl)-3-(3-hydroxy-4-methylphenyl)urea] | > 10 µM |  |  |  |
| O=C1CCC(N2Cc3c(ccc(CNC(=O)Nc4cccc(S(F)(F)(F)(F)F)c4)c3O)C2=O)C(=O)N1 (stereo not drawn) [IG-43, 1-((2-(2,6-dioxopiperidin-3-yl)-4-hydroxy-1-oxoisoindolin-5-yl)methyl)-3-(3-(pentafluoro-l6-sulfaneyl)phenyl)urea] | 0.472 µM |  |  |  |
| O=C1CCC(N2Cc3c(Nc4ccnc(Nc5ccc6c(c5)CCC6)n4)ccc(O)c3C2=O)C(=O)N1 (stereo not drawn) [IG-44, 3-(4-((2-((2,3-dihydro-1H-inden-5-yl)amino)pyrimidin-4-yl)amino)-7-hydroxy-1-oxoisoindolin-2-yl)piperidine-2,6-dione] | > 10 µM |  |  |  |
| CNc1cc2c(cc1CNC(=O)Nc1ccc(C)c(Cl)c1)CN(C1CCC(=O)NC1=O)C2=O (stereo not drawn) [IG-45, 1-(3-chloro-4-methylphenyl)-3-((2-(2,6-dioxopiperidin-3-yl)-6-(methylamino)-1-oxoisoindolin-5-yl)methyl)urea] | > 10 µM |  |  |  |
| O=C1CCC(N2C(=O)c3cc(O)c(NS(=O)(=O)c4ccccc4OC(F)(F)F)cc3C2=O)C(=O)N1 (stereo not drawn) [IG-46, N-(2-(2,6-dioxopiperidin-3-yl)-6-hydroxy-1,3-dioxoisoindolin-5-yl)-2-(trifluoromethoxy)benzenesulfonamide] | > 10 µM |  |  |  |
| O=C1CCC(N2Cc3c(ccc(CNC(=O)Nc4ccc(Br)c(Br)c4)c3O)C2=O)C(=O)N1 (stereo not drawn) [IG-47, 1-(3,4-dibromophenyl)-3-((2-(2,6-dioxopiperidin-3-yl)-4-hydroxy-1-oxoisoindolin-5-yl)methyl)urea] | 1.08 µM |  |  |  |
| CC(C)(C)c1ccc(NC(=O)NCc2ccc3c(c2O)CN(C2CCC(=O)NC2=O)C3=O)cc1Cl (stereo not drawn) [IG-48, 1-(4-(tert-butyl)-3-chlorophenyl)-3-((2-(2,6-dioxopiperidin-3-yl)-4-hydroxy-1-oxoisoindolin-5-yl)methyl)urea] | 0.05 µM |  |  |  |
| CNCCOCCc1ccc(NC(=O)NCc2ccc3c(c2O)CN(C2CCC(=O)NC2=O)C3=O)cc1Cl (stereo not drawn) [IG-53, 1-(3-chloro-4-(2-(2-(methylamino)ethoxy)ethyl)phenyl)-3-((2-(2,6-dioxopiperidin-3-yl)-4-hydroxy-1-oxoisoindolin-5-yl)methyl)urea] | > 30 µM |  |  |  |

Source: patent publication US20260335453A1, “ISOINDOLINONE-GLUTARIMIDE ANTIBODY CONJUGATES, AND USES THEREOF” (FIREFLY BIO, INC., priority 2023, published 2026)
